Read-outs that look alike come from different tables or passages of the source.
Target: T1, JNK1 (Homo sapiens, UniProt P45983)
T1 construct: purchased Carna Biosciences
Test: JNK1 biochemical assays (one or more of: time resolved fluorescence, Z'-LYTE Cascade, radioactive)
Conditions: JNK1 IC50 activity level, read-out: Act. Level

T1 sequence (P45983 whole entry): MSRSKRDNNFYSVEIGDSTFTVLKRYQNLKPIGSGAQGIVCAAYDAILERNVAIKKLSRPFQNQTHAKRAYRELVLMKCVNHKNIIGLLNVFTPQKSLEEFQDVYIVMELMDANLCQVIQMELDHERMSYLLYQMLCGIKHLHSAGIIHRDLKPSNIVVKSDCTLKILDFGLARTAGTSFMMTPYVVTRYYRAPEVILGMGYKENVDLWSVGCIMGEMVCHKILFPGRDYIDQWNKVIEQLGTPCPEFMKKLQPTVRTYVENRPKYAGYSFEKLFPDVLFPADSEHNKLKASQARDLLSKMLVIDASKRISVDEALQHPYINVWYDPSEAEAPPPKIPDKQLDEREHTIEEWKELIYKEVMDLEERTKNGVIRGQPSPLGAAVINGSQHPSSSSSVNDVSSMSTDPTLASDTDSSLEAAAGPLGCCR

An IC50 (Table 2) of under 200 nM was found for `C[C@]1(O)CCC[C@@H](Nc2nc(N[C@H]3CCc4ncccc4C3)ncc2C(N)=O)C1` [Example B-102, 4-((1R,3S)-3-hydroxy-3-methylcyclohexylamino)-2-((S)-5,6,7,8-tetrahydroquinolin-6-ylamino)pyrimidine-5-carboxamide] in this work.

An IC50 (Table 3) of 200 to 800 nM was found for `CCO[C@H]1CC[C@H](Nc2ncc(C#N)c(N[C@H]3CCC[C@@H](O)C3)n2)CC1` [Example C-1, 2-((1r,4S)-4-ethoxycyclohexylamino)-4-((1S,3R)-3-hydroxycyclohexylamino) pyrimidine-5-carbonitrile] in this work.

An IC50 (Table 3) of under 200 nM was found for `CCO[C@H]1CC[C@H](Nc2ncc(C#N)c(N[C@@H]3CCC[C@H](O)C3)n2)CC1` [Example C-2, 2-((1r,4R)-4-ethoxycyclohexylamino)-4-((1R,3S)-3-hydroxycyclohexylamino) pyrimidine-5-carbonitrile] in this work.

An IC50 (Table 3) of 200 to 800 nM was found for `N#Cc1cnc(NC2CCC(F)(F)CC2)nc1N[C@@H]1CCC[C@H](O)C1` [Example C-3, 2-(4,4-difluorocyclohexylamino)-4-((1R,3S)-3-hydroxycyclohexylamino) pyrimidine-5-carbonitrile] in this work.

An IC50 (Table 3) of under 200 nM was found for `CO[C@H]1CC[C@H](Nc2ncc(C#N)c(N[C@@H]3CCC[C@H](O)C3)n2)CC1` [Example C-4, 4-((1R,3S)-3-hydroxycyclohexylamino)-2-((1r,4R)-4-methoxycyclohexylamino) pyrimidine-5-carbonitrile] in this work.

An IC50 (Table 3) of 200 to 800 nM was found for `N#Cc1cnc(NC2CCOCC2)nc1N[C@@H]1CCC[C@H](O)C1` [Example C-5, 4-((1R,3S)-3-hydroxycyclohexylamino)-2-(tetrahydro-2H-pyran-4-ylamino)pyrimidine-5-carbonitrile] in this work.

An IC50 (Table 3) of under 200 nM was found for `N#Cc1cnc(N[C@H]2CC[C@H](OC(F)F)CC2)nc1N[C@@H]1CCC[C@H](O)C1` [Example C-6, 2-((1r,4R)-4-(difluoromethoxy)cyclohexylamino)-4-((1R,3S)-3-hydroxycyclohexylamino) pyrimidine-5-carbonitrile] in this work.

An IC50 (Table 3) of 200 to 800 nM was found for `CC(C)(C)Nc1ncc(C#N)c(N[C@@H]2CCC[C@H](O)C2)n1` [Example C-7, 2-(tert-butylamino)-4-((1R,3S)-3-hydroxycyclohexylamino) pyrimidine-5-carbonitrile] in this work.

An IC50 (Table 3) of under 200 nM was found for `N#Cc1cnc(N[C@H]2CC[C@H](O)CC2)nc1N[C@@H]1CCC[C@H](O)C1` [Example C-8, 4-((1R,3S)-3-hydroxycyclohexylamino)-2-((1r,4R)-4-hydroxycyclohexylamino) pyrimidine-5-carbonitrile] in this work.

An IC50 (Table 3) of under 200 nM was found for `CN(C)C(=O)[C@H]1CC[C@H](Nc2ncc(C#N)c(N[C@@H]3CCC[C@H](O)C3)n2)CC1` [Example C-9, (1R,4r)-4-(5-cyano-4-((1R,3S)-3-hydroxycyclohexylamino)pyrimidin-2-ylamino)-N,N-dimethylcyclohexanecarboxamide] in this work.

An IC50 (Table 3) of under 200 nM was found for `N#Cc1cnc(NC2CCCCC2)nc1N[C@@H]1CCC[C@H](O)C1` [Example C-10, 2-(cyclohexylamino)-4-((1R,3S)-3-hydroxycyclohexylamino) pyrimidine-5-carbonitrile] in this work.

An IC50 (Table 3) of under 200 nM was found for `CN[C@H]1CC[C@H](Nc2ncc(C#N)c(N[C@@H]3CCC[C@H](O)C3)n2)CC1` [Example C-11, 4-((1R,3S)-3-hydroxycyclohexylamino)-2-((1r,4R)-4-(methylamino)cyclohexylamino) pyrimidine-5-carbonitrile] in this work.

An IC50 (Table 3) of 200 to 800 nM was found for `CO[C@H]1CC[C@H](Nc2ncc(C#N)c(N[C@H]3CC[C@@H](O)CC3)n2)CC1` [Example C-12, 4-((1s,4s)-4-hydroxycyclohexylamino)-2-((1r,4r)-4-methoxycyclohexylamino) pyrimidine-5-carbonitrile] in this work.

An IC50 (Table 3) of under 200 nM was found for `CC(=O)N[C@H]1CC[C@H](Nc2ncc(C#N)c(N[C@@H]3CCC[C@H](O)C3)n2)CC1` [Example C-13, N-((1R,4r)-4-(5-cyano-4-((1R,3S)-3-hydroxycyclohexylamino)pyrimidin-2-ylamino)cyclohexyl)acetamide] in this work.

An IC50 (Table 3) of under 200 nM was found for `N#Cc1cnc(N[C@H]2CC[C@H](OCC(F)(F)F)CC2)nc1N[C@@H]1CCC[C@H](O)C1` [Example C-14, 4-((1R,3S)-3-hydroxycyclohexylamino)-2-((1r,4R)-4-(2,2,2-trifluoroethoxy)cyclohexylamino) pyrimidine-5-carbonitril] in this work.

An IC50 (Table 3) of 800 to 1000 nM was found for `CO[C@H]1CC[C@H](Nc2ncc(C#N)c(N[C@H]3CC[C@H](O)CC3)n2)CC1` [Example C-15, 4-((1r,4r)-4-hydroxycyclohexylamino)-2-((1r,4r)-4-methoxycyclohexylamino) pyrimidine-5-carbonitrile] in this work.

An IC50 (Table 3) of under 200 nM was found for `CO[C@H]1CC[C@H](Nc2ncc(C#N)c(N[C@@H]3CCC[C@@H]3CO)n2)CC1` [Example C-16, 4-((1R,2S)-2-(hydroxymethyl)cyclopentylamino)-2-((1r,4R)-4-methoxycyclohexylamino) pyrimidine-5-carbonitrile] in this work.

An IC50 (Table 3) of 800 to 1000 nM was found for `CO[C@H]1CC[C@H](Nc2ncc(C#N)c(NC(C)C)n2)CC1` [Example C-17, 4-(isopropylamino)-2-((1r,4r)-4-methoxycyclohexylamino) pyrimidine-5-carbonitrile] in this work.

An IC50 (Table 3) of under 200 nM was found for `CO[C@H]1CC[C@H](Nc2ncc(C#N)c(N[C@@H]3CCC[C@H]3O)n2)CC1` [Example C-18, 4-((1R,2R)-2-hydroxycyclopentylamino)-2-((1r,4R)-4-methoxycyclohexylamino) pyrimidine-5-carbonitrile] in this work.

An IC50 (Table 3) of under 200 nM was found for `CO[C@H]1CC[C@H](Nc2ncc(C#N)c(N[C@@H]3CCC[C@](C)(O)C3)n2)CC1` [Example C-19, 4-((1R,3S)-3-hydroxy-3-methylcyclohexylamino)-2-((1r,4R)-4-methoxycyclohexylamino) pyrimidine-5-carbonitrile] in this work.

An IC50 (Table 3) of 200 to 800 nM was found for `CCO[C@H]1CC[C@H](Nc2ncc(C#N)c(NC3CCCCC3)n2)CC1` [Example C-20, 4-(cyclohexylamino)-2-((1r,4r)-4-ethoxycyclohexylamino) pyrimidine-5-carbonitrile] in this work.

An IC50 (Table 3) of 1000 to 10000 nM was found for `CCO[C@H]1CC[C@H](Nc2ncc(C#N)c(NC3CCOCC3)n2)CC1` [Example C-21, 2-((1r,4r)-4-ethoxycyclohexylamino)-4-(tetrahydro-2H-pyran-4-ylamino)pyrimidine-5-carbonitrile] in this work.

An IC50 (Table 3) of 200 to 800 nM was found for `CCO[C@H]1CC[C@H](Nc2ncc(C#N)c(N[C@H]3CC[C@@H](O)CC3)n2)CC1` [Example C-22, 2-((1r,4r)-4-ethoxycyclohexylamino)-4-((1s,4s)-4-hydroxycyclohexylamino) pyrimidine-5-carbonitrile] in this work.

An IC50 (Table 3) of 200 to 800 nM was found for `CCO[C@H]1CC[C@H](Nc2ncc(C#N)c(NC3CCCC3)n2)CC1` [Example C-23, 4-(cyclopentylamino)-2-((1r,4r)-4-ethoxycyclohexylamino) pyrimidine-5-carbonitrile] in this work.

An IC50 (Table 3) of 1000 to 10000 nM was found for `CCO[C@H]1CC[C@H](Nc2ncc(C#N)c(N[C@H]3CCCOC3)n2)CC1` [Example C-24, 2-((1r,4S)-4-ethoxycyclohexylamino)-4-((S)-tetrahydro-2H-pyran-3-ylamino)pyrimidine-5-carbonitrile] in this work.

An IC50 (Table 3) of 800 to 1000 nM was found for `CCO[C@H]1CC[C@H](Nc2ncc(C#N)c(N[C@H]3CC[C@H](O)CC3)n2)CC1` [Example C-25, 2-((1r,4r)-4-ethoxycyclohexylamino)-4-((1r,4r)-4-hydroxycyclohexylamino) pyrimidine-5-carbonitrile] in this work.

An IC50 (Table 3) of 200 to 800 nM was found for `CCO[C@H]1CC[C@H](Nc2ncc(C#N)c(N[C@@H]3CCCOC3)n2)CC1` [Example C-26, 2-((1r,4R)-4-ethoxycyclohexylamino)-4-((R)-tetrahydro-2H-pyran-3-ylamino)pyrimidine-5-carbonitrile] in this work.

An IC50 (Table 3) of under 200 nM was found for `CO[C@H]1CC[C@H](Nc2ncc(C#N)c(N[C@@H]3CCCC[C@H](O)C3)n2)CC1` [Example C-27, 4-((1R,3S)-3-hydroxycycloheptylamino)-2-((1r,4R)-4-methoxycyclohexylamino) pyrimidine-5-carbonitrile] in this work.

An IC50 (Table 3) of under 200 nM was found for `CCO[C@H]1CC[C@H](Nc2ncc(C#N)c(N[C@@H]3CCC[C@](C)(O)C3)n2)CC1` [Example C-28, 2-((1r,4R)-4-ethoxycyclohexylamino)-4-((1R,3S)-3-hydroxy-3-methylcyclohexylamino) pyrimidine-5-carbonitrile] in this work.

An IC50 (Table 3) of under 200 nM was found for `CCO[C@H]1CC[C@H](Nc2ncc(C#N)c(N[C@@H]3CCCC[C@H](O)C3)n2)CC1` [Example C-29, 2-((1r,4R)-4-ethoxycyclohexylamino)-4-((1R,3S)-3-hydroxycycloheptylamino) pyrimidine-5-carbonitrile] in this work.

An IC50 (Table 3) of under 200 nM was found for `N#Cc1cnc(N[C@H]2CC[C@H](OCC(F)(F)F)CC2)nc1N[C@@H]1CCCC[C@H](O)C1` [Example C-30, 4-((1R,3S)-3-hydroxycycloheptylamino)-2-((1r,4R)-4-(2,2,2-trifluoroethoxy)cyclohexylamino) pyrimidine-5-carbonitril] in this work.

An IC50 (Table 3) of 200 to 800 nM was found for `N#Cc1cnc(N[C@H]2CC[C@H](O)CC2)nc1N[C@@H]1CCCC[C@@H]1O` [Example C-31, 4-((1R,2S)-2-hydroxycyclohexylamino)-2-((1r,4R)-4-hydroxycyclohexylamino) pyrimidine-5-carbonitrile] in this work.

An IC50 (Table 3) of under 200 nM was found for `N#Cc1cnc(N[C@H]2CC[C@H](OC(F)F)CC2)nc1N[C@@H]1CCCC[C@H](O)C1` [Example C-32, 2-((1r,4R)-4-(difluoromethoxy)cyclohexylamino)-4-((1R,3S)-3-hydroxycycloheptylamino) pyrimidine-5-carbonitrile] in this work.

An IC50 (Table 3) of under 200 nM was found for `CC[C@]1(O)CCC[C@@H](Nc2nc(N[C@H]3CC[C@H](OC)CC3)ncc2C#N)C1` [Example C-33, 4-((1R,3S)-3-ethyl-3-hydroxycyclohexylamino)-2-((1r,4R)-4-methoxycyclohexylamino) pyrimidine-5-carbonitrile] in this work.

An IC50 (Table 3) of under 200 nM was found for `CN(C)C(=O)C(C)(C)C1CCC(Nc2ncc(C#N)c(N[C@@H]3CCC[C@H](O)C3)n2)CC1` (stereo partly drawn) [Example C-34, 2-(4-(5-cyano-4-((1R,3S)-3-hydroxycyclohexylamino)pyrimidin-2-ylamino)cyclohexyl)-N,N,2-trimethylpropanamide] in this work.

An IC50 (Table 3) of 200 to 800 nM was found for `CN(C)C(=O)C(C)(C)C1CCC(Nc2ncc(C#N)c(N[C@@H]3CCC[C@H](O)C3)n2)CC1` (stereo partly drawn) [Example C-35, 2-(4-(5-cyano-4-((1R,3S)-3-hydroxycyclohexylamino)pyrimidin-2-ylamino)cyclohexyl)-N,N,2-trimethylpropanamide] in this work.

— patent publication US12129237B2, “Substituted diaminocarboxamide and diaminocarbonitrile pyrimidines, compositions thereof, and methods of treatment therewith” (SIGNAL PHARMACEUTICALS, LLC, priority 2011, dated 2024)
